Source: ChEMBL document CHEMBL1135007, “Synthesis and pharmacological evaluation of a new class of peroxisome proliferator-activated receptor modulators” (Bioorg Med Chem Lett, 2002)

Columns and labels:
[1] = molecular target: T1, Peroxisome proliferator-activated receptor alpha (Homo sapiens, UniProt Q07869); experiment: Ligand binding affinity was determined by displacement of a tritiated tracer by the unlabeled compound to a GST-PPAR fusion protein for Peroxisome proliferator activated receptor alpha containing residues
T1 sequence (Q07869 whole entry): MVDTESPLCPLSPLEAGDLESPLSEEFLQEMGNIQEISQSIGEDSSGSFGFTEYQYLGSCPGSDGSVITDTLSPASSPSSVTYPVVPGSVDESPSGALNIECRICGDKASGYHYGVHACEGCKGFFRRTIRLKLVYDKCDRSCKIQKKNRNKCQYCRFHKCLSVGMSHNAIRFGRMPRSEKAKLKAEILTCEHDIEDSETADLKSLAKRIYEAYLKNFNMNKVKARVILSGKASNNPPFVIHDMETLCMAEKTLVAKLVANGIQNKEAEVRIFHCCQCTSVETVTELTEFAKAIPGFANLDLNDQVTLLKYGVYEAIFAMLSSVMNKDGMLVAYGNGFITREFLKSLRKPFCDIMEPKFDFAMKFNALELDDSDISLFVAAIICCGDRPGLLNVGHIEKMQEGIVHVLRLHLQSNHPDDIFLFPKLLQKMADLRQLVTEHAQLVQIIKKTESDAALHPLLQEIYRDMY

[2] = molecular target: T1, Peroxisome proliferator-activated receptor alpha; experiment: Transactivation potency was measured by luciferase activity in Caco- 2/TC7 cells transiently co-transfected for the fusion-protein Gal4-PPAR alpha; type: functional, cell-based
[3] = molecular target: T2, Peroxisome proliferator-activated receptor gamma (Homo sapiens, UniProt P37231); experiment: Transactivation potency was measured by luciferase activity in Caco- 2/TC7 cells transiently co-transfected for the fusion-protein Gal4-PPAR gamma; type: functional, cell-based
T2 sequence (P37231 whole entry): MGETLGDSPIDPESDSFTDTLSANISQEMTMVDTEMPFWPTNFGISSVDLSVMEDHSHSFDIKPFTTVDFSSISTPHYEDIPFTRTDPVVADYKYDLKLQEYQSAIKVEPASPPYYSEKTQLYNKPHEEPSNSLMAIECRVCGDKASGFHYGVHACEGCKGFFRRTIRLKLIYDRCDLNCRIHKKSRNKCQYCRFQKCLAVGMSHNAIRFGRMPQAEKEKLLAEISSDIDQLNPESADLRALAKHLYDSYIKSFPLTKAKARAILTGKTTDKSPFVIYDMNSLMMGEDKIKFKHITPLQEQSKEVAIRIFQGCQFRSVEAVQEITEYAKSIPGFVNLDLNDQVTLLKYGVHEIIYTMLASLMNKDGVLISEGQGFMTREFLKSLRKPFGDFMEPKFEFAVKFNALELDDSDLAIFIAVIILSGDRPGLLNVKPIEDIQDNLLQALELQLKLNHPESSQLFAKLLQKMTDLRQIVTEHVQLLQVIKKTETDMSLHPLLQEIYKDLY

[4] = molecular target: T2, Peroxisome proliferator-activated receptor gamma; experiment: Ligand binding affinity was determined by displacement of a tritiated tracer by the unlabeled compound to a GST-PPAR fusion protein for Peroxisome proliferator activated receptor gamma containing residues

Structure (SMILES) | Ki [1] [µM] | EC50 [2] [µM] | EC50 [3] [µM] | Ki [4] [µM]
O=C(Nc1ccc(-c2ccco2)cc1C(=O)O)c1ccc(Cl)cc1Cl | 22 | 10 | 1 | 0.5
O=C(Nc1ccc(Oc2ncccc2[N+](=O)[O-])cc1C(=O)O)c1ccc(Cl)cc1Cl | > 100 | > 100 | 0.4 | 0.17
CSCCOc1ccc(NC(=O)c2ccc(Cl)cc2Cl)c(C(=O)O)c1 | 19 | 2.5 | 0.6 | 1.6
O=C(Nc1ccc(Oc2cncc(Cl)n2)cc1C(=O)O)c1ccc(Cl)cc1Cl | 21 | > 100 | 0.45 | 0.16
O=C(Nc1ccc(OCCc2cccs2)cc1C(=O)O)c1ccc(Cl)cc1Cl | > 100 | > 100 | 0.7 | 1
CCOc1cccc(-c2ccc(NC(=O)c3ccc(Cl)cc3Cl)c(C(=O)O)c2)c1 | > 100 | > 100 | 0.3 | 1.2
O=C(Nc1ccc(OCCc2ccccn2)cc1C(=O)O)c1ccc(Cl)cc1Cl | > 100 |  | 3.2 | 1.5
O=C(Nc1ccc(Oc2ncccn2)cc1C(=O)O)c1ccc(Cl)cc1Cl | > 100 | > 100 | 1.3 | 0.1
CCOc1ccc(COc2ccc(NC(=O)c3ccc(Cl)cc3Cl)c(C(=O)O)c2)cc1 | > 100 | > 100 | 0.7 | 3.6
O=C(Nc1ccc(-c2cccc3cccnc23)cc1C(=O)O)c1ccc(Cl)cc1Cl | > 100 | > 100 | 0.3 | 0.7
O=C(Nc1ccc(-c2ccsc2)cc1C(=O)O)c1ccc(Cl)cc1Cl | 28 | 12 | 0.7 | 0.9
O=C(Nc1ccc(OCc2cccs2)cc1C(=O)O)c1ccc(Cl)cc1Cl | 25 | 5 | 0.3 | 0.4
O=C(Nc1ccc(Oc2ccc([N+](=O)[O-])cn2)cc1C(=O)O)c1ccc(Cl)cc1Cl | > 100 | > 100 | 0.4 | 0.18
O=C(O)c1cccc(-c2ccc(NC(=O)c3ccc(Cl)cc3Cl)c(C(=O)O)c2)c1 | 67 | > 100 | > 100 | 1.4
O=C(Nc1ccc(OCCc2ccsc2)cc1C(=O)O)c1ccc(Cl)cc1Cl | 20 | 3.8 | 0.8 | 0.6
Cc1ccc(NC(=O)c2ccc(Cl)cc2Cl)c(C(=O)O)c1 | 30 | 9.5 | 1.6 | 2.2
